The values that follow come from patent US20240409585A1, “MACROCYCLIC IMMUNOMODULATORS” (priority 2021, published 2024).

Bridge positions count the residues as written; N and C are the ends. Square brackets hold non-standard residues; d marks the D form. Peptide text beside a SMILES is read from it. * marks the point of attachment. ξ: configuration not given here. Phe(4-COOH) = N[C@@H](Cc1ccc(C(=O)O)cc1)C(=O)O; Bip = N[C@@H](Cc1ccc(-c2ccccc2)cc1)C(=O)O; Phe(3-Me) = Cc1cccc(C[C@H](N)C(=O)O)c1; Val(3-OH) = CC(C)(O)[C@H](N)C(=O)O; aIle = CC[C@@H](C)[C@H](N)C(=O)O; 4Pal = N[C@@H](Cc1ccncc1)C(=O)O; Cha = N[C@@H](CC1CCCCC1)C(=O)O; Cit = NC(=O)NCCC[C@H](N)C(=O)O; Ile(3ξ) = CCC(C)[C@H](N)C(=O)O; Thr(3ξ) = CC(O)[C@H](N)C(=O)O; Pen = CC(C)(S)[C@H](N)C(=O)O; ξCha = NC(CC1CCCCC1)C(=O)O; Pip = O=C(O)[C@@H]1CCCCN1; Carboxymethyl = O=C(O)C*; NMeA = CN[C@@H](C)C(=O)O; Orn = NCCC[C@H](N)C(=O)O; Dab = NCC[C@H](N)C(=O)O; Dap = NC[C@H](N)C(=O)O; ξC = NC(CS)C(=O)O; Acm = CC(=O)NC*

In the test the target is T1, PE-labeled human PD-L1-Ig binding to Jurkat cell line over-expressing human PD-1 (Jurkat-PD-1) (Homo sapiens, UniProt Q15116).
T1 construct: expressed in transfected cells; host or cells: Jurkat
T1 sequence (Q15116 25-288): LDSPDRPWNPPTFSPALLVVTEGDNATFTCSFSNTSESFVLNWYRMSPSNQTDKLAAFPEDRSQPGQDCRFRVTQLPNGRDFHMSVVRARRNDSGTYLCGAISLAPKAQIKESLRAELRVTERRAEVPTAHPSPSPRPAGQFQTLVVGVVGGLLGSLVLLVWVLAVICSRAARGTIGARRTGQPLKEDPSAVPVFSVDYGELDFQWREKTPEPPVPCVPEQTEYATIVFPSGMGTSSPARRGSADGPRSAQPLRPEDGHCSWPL
In words: Jurkat-PD-1 Cell Binding High-Content Screening Assay (CBA): Method 1. The following applies: Jurkat-hPD-1 cells, PE-labeled PD-L1-Ig 20 nM final; read-out: Jurkat HPDL1 PD1 IC50 (uM) (Method 1).
Regarding `CC(C)C[C@@H]1NC(=O)[C@H](Cc2c[nH]c3ccccc23)NC(=O)[C@H](CC(=O)O)NC(=O)[C@H](Cc2ccc(O)cc2)NC(=O)[C@H](Cc2ccccc2)NC(=O)CSC[C@@H](C(=O)NCC(N)=O)NC(=O)[C@H](CO)NC(=O)[C@H](C(C)C)NC(=O)[C@H](CC(C)C)NC(=O)[C@H](CC(N)=O)NC(=O)[C@H](CCCNC(N)=O)NC(=O)[C@H](C)N(C)C(=O)[C@H](C(C)C)NC(=O)[C@H](Cc2ccc(-c3ccccc3)cc2)NC1=O` [Compound 1812] ({CH2CO}-FYDWL[Bip]V[NMeA][Cit]NLVSCG-NH2; thioether N-14), the IC50 was determined as 0.28 µM.

Take `CCC(C)[C@@H]1NC(=O)[C@H](Cc2ccc(-c3ccccc3)cc2)NC(=O)[C@H](C(C)C)NC(=O)[C@H](Cc2c[nH]c3ccccc23)NC(=O)[C@H](CC(N)=O)NC(=O)[C@H](Cc2ccc(OCC(=O)O)cc2)NC(=O)[C@H](Cc2ccncc2)NC(=O)CSC[C@@H](C(=O)N[C@@H](C)C(=O)N[C@@H](CCCCN)C(N)=O)NC(=O)[C@H](C(C)O)NC(=O)[C@H](C(C)C)NC(=O)C(CC2CCCCC2)NC(=O)[C@H](CC(N)=O)NC(=O)[C@@H](CC(C)C)NC(=O)[C@H](C)N(C)C1=O` (stereo partly drawn) [Compound 2018] ({CH2CO}-[4Pal]Y(Carboxymethyl)NWV[Bip][Ile(3ξ)][NMeA][dL]N[ξCha]V[Thr(3ξ)]CAK-NH2; thioether N-14): the IC50 turned out to be 0.12 µM. Take `CC(C)C[C@@H]1NC(=O)[C@H](CCCN)NC(=O)[C@@H](CC(C)C)NC(=O)[C@H](C)N(C)C(=O)[C@H](CCCNC(=N)N)NC(=O)[C@H](Cc2ccc(-c3ccccc3)cc2)NC(=O)[C@H](C(C)C)NC(=O)[C@H](Cc2c[nH]c3ccccc23)NC(=O)[C@H](CC(=O)O)NC(=O)[C@H](Cc2ccc(OCC(=O)O)cc2)NC(=O)[C@H](Cc2ccccc2)NC(=O)CSC[C@@H](C(=O)N[C@@H](C)C(N)=O)NC(=O)[C@H]([C@@H](C)O)NC(=O)[C@H](C(C)C)NC1=O` [Compound 1140] ({CH2CO}-FY(Carboxymethyl)DWV[Bip]R[NMeA][dL][Orn]LVTCA-NH2; thioether N-14): the IC50 worked out at 0.03 µM.

Turning to `CC(=O)NCC[C@H](NC(=O)[C@@H]1CSCC(=O)N[C@@H](Cc2ccncc2)C(=O)N[C@@H](Cc2ccc(OCC(=O)O)cc2)C(=O)N[C@@H](CC(=O)O)C(=O)N[C@@H](Cc2cccc(C)c2)C(=O)N[C@@H](Cc2ccc(C(=O)O)cc2)C(=O)N[C@@H](Cc2ccc(-c3ccccc3)cc2)C(=O)N[C@@H](Cc2ccc(OCC(=O)O)cc2)C(=O)N(C)[C@@H](C)C(=O)N[C@H](CC(C)C)C(=O)N[C@@H](CCN)C(=O)N[C@@H](CC2CCCCC2)C(=O)N[C@@H](C(C)(C)O)C(=O)N[C@@H](Cc2cnc[nH]2)C(=O)N1)C(N)=O` [Compound 2162] ({CH2CO}-[4Pal]Y(Carboxymethyl)D[Phe(3-Me)][Phe(4-COOH)][Bip]Y(Carboxymethyl)[NMeA][dL][Dab][Cha][Val(3-OH)]HC[Dab](Ac)-NH2; thioether N-14), the IC50 worked out at 0.02 µM.

For the compound `CC[C@H](C)[C@@H]1NC(=O)[C@H](Cc2ccc(-c3ccccc3)cc2)NC(=O)[C@H](C(C)C)NC(=O)[C@H](Cc2c[nH]c3ccccc23)NC(=O)[C@H](CC(=O)O)NC(=O)[C@H](Cc2ccc(O)cc2)NC(=O)[C@H](CC(N)=O)NC(=O)CSC[C@@H](C(=O)N[C@@H](C)C(N)=O)NC(=O)[C@H]([C@@H](C)O)NC(=O)[C@H](C(C)C)NC(=O)[C@H](CC(C)C)NC(=O)[C@H](CCCNC(=N)N)NC(=O)[C@@H](CC(C)C)NC(=O)[C@H](C)N(C)C1=O` [Compound 1490] ({CH2CO}-NYDWV[Bip]I[NMeA][dL]RLVTCA-NH2; thioether N-14), the IC50 came out at 0.07 µM. Regarding `CC[C@@H](C)[C@@H]1NC(=O)[C@H](Cc2ccc(-c3ccccc3)cc2)NC(=O)[C@H](CC(C)C)NC(=O)[C@H](Cc2cccc(C)c2)NC(=O)[C@H](CC(=O)O)NC(=O)[C@H](Cc2ccncc2)NC(=O)[C@H](Cc2ccc(OCC(=O)O)cc2)NC(=O)CSC[C@@H](C(N)=O)NC(=O)[C@H](CO)NC(=O)[C@H](C(C)C)NC(=O)[C@H](CC(C)C)NC(=O)[C@H](CC(N)=O)NC(=O)[C@@H](CC(C)C)NC(=O)[C@H](C)N(C)C1=O` [Compound 1638] ({CH2CO}-Y(Carboxymethyl)[4Pal]D[Phe(3-Me)]L[Bip][aIle][NMeA][dL]NLVSC-NH2; thioether N-14), the IC50 turned out to be 0.07 µM. Regarding `Cc1cccc(C[C@@H]2NC(=O)[C@H](CC(=O)O)NC(=O)[C@H](Cc3ccc(OCC(=O)O)cc3)NC(=O)[C@H](CN)NC(=O)CSC[C@@H](C(N)=O)NC(=O)[C@H](CC(N)=O)NC(=O)[C@H](C(C)C)NC(=O)[C@H](CC3CCCCC3)NC(=O)[C@H](CCN)NC(=O)[C@@H](CC(C)C)NC(=O)[C@@H]3CCCCN3C(=O)[C@H](Cc3ccc(OCC(=O)O)cc3)NC(=O)[C@H](Cc3ccc(-c4ccccc4)cc3)NC(=O)[C@H](Cc3ccc(OCC(=O)O)cc3)NC2=O)c1` [Compound 1895] ({CH2CO}-[Dap]Y(Carboxymethyl)D[Phe(3-Me)]Y(Carboxymethyl)[Bip]Y(Carboxymethyl)[Pip][dL][Dab][Cha]VNC-NH2; thioether N-14), the IC50 amounted to 0.11 µM. The value for `CCC(C)[C@@H]1NC(=O)[C@H](Cc2ccc(-c3ccccc3)cc2)NC(=O)[C@H](C(C)C)NC(=O)[C@H](Cc2c[nH]c3ccccc23)NC(=O)[C@H](CC(=O)O)NC(=O)[C@H](Cc2ccc(O)cc2)NC(=O)[C@H](Cc2ccncc2)NC(=O)CSCC(C(=O)N[C@@H](CCN)C(=O)O)NC(=O)[C@H](C(C)O)NC(=O)[C@H](C(C)C)NC(=O)[C@H](CC2CCCCC2)NC(=O)[C@H](CC(N)=O)NC(=O)[C@@H](CC(C)C)NC(=O)[C@H](C)N(C)C1=O` (stereo partly drawn) [Compound 2213] ({CH2CO}-[4Pal]YDWV[Bip][Ile(3ξ)][NMeA][dL]N[Cha]V[Thr(3ξ)][ξC][Dab]-OH; thioether N-14) was 0.02 µM; that for `CC(C)C[C@@H]1NC(=O)[C@H](CCCCN)NC(=O)[C@@H](CC(C)C)NC(=O)[C@H](C)N(C)C(=O)[C@H](CCCNC(=N)N)NC(=O)[C@H](Cc2ccc(-c3ccccc3)cc2)NC(=O)[C@H](C(C)C)NC(=O)[C@H](Cc2c[nH]c3ccccc23)NC(=O)[C@H](CC(=O)O)NC(=O)[C@H](Cc2ccc(O)cc2)NC(=O)[C@H](Cc2ccccc2)NC(=O)CSC[C@@H](C(=O)N[C@@H](CO)C(N)=O)NC(=O)[C@H]([C@@H](C)O)NC(=O)[C@H](C(C)C)NC1=O` [Compound 1184] ({CH2CO}-FYDWV[Bip]R[NMeA][dL]KLVTCS-NH2; thioether N-14) was 0.13 µM; that for `CC(C)C[C@@H]1NC(=O)[C@H](Cc2c[nH]c3ccccc23)NC(=O)[C@H](CC(=O)O)NC(=O)[C@H](Cc2ccc(OCC(=O)O)cc2)NC(=O)[C@H](Cc2ccc(OCC(=O)O)cc2)NC(=O)CSC(C)(C)[C@@H](C(N)=O)NC(=O)[C@H](CO)NC(=O)[C@H](C(C)C)NC(=O)[C@H](CC(C)C)NC(=O)[C@H](CCN)NC(=O)[C@@H](CC(C)C)NC(=O)[C@H](C)N(C)C(=O)[C@H](C(C)C)NC(=O)[C@H](Cc2ccc(-c3ccccc3)cc2)NC1=O` [Compound 2260] ({CH2CO}-Y(Carboxymethyl)Y(Carboxymethyl)DWL[Bip]V[NMeA][dL][Dab]LVS[Pen]-NH2; thioether N-14) was 0.26 µM.

With `CC(=O)NCSC[C@@H]1NC(=O)[C@H](CC(C)C)NC(=O)[C@H](CC(N)=O)NC(=O)[C@@H](CC(C)C)NC(=O)[C@H](C)N(C)C(=O)[C@H](CSCNC(C)=O)NC(=O)[C@H](Cc2ccc(-c3ccccc3)cc2)NC(=O)[C@H](CC(C)C)NC(=O)[C@H](Cc2cccc(C)c2)NC(=O)[C@H](CC(=O)O)NC(=O)[C@H](Cc2ccncc2)NC(=O)[C@H](Cc2ccc(OCC(=O)O)cc2)NC(=O)CSCC(C(=O)NCC(N)=O)NC(=O)[C@H](CO)NC1=O` (stereo partly drawn) [Compound 1886] ({CH2CO}-Y(Carboxymethyl)[4Pal]D[Phe(3-Me)]L[Bip]C(Acm)[NMeA][dL]NLC(Acm)S[ξC]G-NH2; thioether N-14), the 50% inhibitory concentration (IC50) was 0.14 µM. For the compound `Cc1cccc(C[C@@H]2NC(=O)[C@H](CC(=O)O)NC(=O)[C@H](Cc3ccc(C(=O)O)cc3)NC(=O)[C@H](CN)NC(=O)CSC[C@@H](C(=O)N[C@@H](C)C(N)=O)NC(=O)[C@H]([C@@H](C)O)NC(=O)[C@H](C(C)C)NC(=O)[C@H](CC(C)C)NC(=O)[C@H](CCN)NC(=O)[C@@H](CC(C)C)NC(=O)[C@H](C)N(C)C(=O)[C@H](CCCNC(=N)N)NC(=O)[C@H](Cc3ccc(-c4ccccc4)cc3)NC(=O)[C@H](C(C)C)NC2=O)c1` [Compound 1457] ({CH2CO}-[Dap][Phe(4-COOH)]D[Phe(3-Me)]V[Bip]R[NMeA][dL][Dab]LVTCA-NH2; thioether N-14), the half-maximal inhibitory concentration (IC50) is 0.01 µM. The value for `CC(C)C[C@@H]1NC(=O)[C@H](Cc2c[nH]c3ccccc23)NC(=O)[C@H](CC(=O)O)NC(=O)[C@H](Cc2ccc(C(=O)O)cc2)NC(=O)[C@H](Cc2ccc(OCC(=O)O)cc2)NC(=O)CSC[C@@H](C(N)=O)NC(=O)[C@H](CO)NC(=O)[C@H](C(C)C)NC(=O)[C@H](CC2CCCCC2)NC(=O)[C@H](CCN)NC(=O)[C@@H](CC(C)C)NC(=O)[C@H](C)N(C)C(=O)[C@H](CCCNC(N)=O)NC(=O)[C@H](Cc2ccc(-c3ccccc3)cc2)NC1=O` [Compound 1636] ({CH2CO}-Y(Carboxymethyl)[Phe(4-COOH)]DWL[Bip][Cit][NMeA][dL][Dab][Cha]VSC-NH2; thioether N-14) was 0.01 µM; that for `Cc1cccc(C[C@@H]2NC(=O)[C@H](CC(=O)O)NC(=O)[C@H](Cc3ccc(C(=O)O)cc3)NC(=O)[C@H](Cc3ccncc3)NC(=O)CSC[C@@H](C(N)=O)NC(=O)[C@H]([C@@H](C)O)NC(=O)[C@H](C(C)C)NC(=O)[C@H](CC(C)C)NC(=O)[C@H](CCN)NC(=O)[C@@H](CC(C)C)NC(=O)[C@H](C)N(C)C(=O)[C@H](CCCNC(N)=O)NC(=O)[C@H](Cc3ccc(-c4ccccc4)cc3)NC(=O)[C@H](C(C)C)NC2=O)c1` [Compound 1898] ({CH2CO}-[4Pal][Phe(4-COOH)]D[Phe(3-Me)]V[Bip][Cit][NMeA][dL][Dab]LVTC-NH2; thioether N-14) was 0.07 µM.

Broadly, the IC50 is the concentration at which inhibition is half-maximal.
